# Results: patent US20250241927A1, “MEDICAMENT COMPRISING A P2X4 RECEPTOR ANTAGONIST FOR PREVENTING OR TREATING NOCICEPTIVE PAIN AND/OR VISCERAL PAIN” (NIPPON CHEMIPHAR CO., LTD., priority 2021, published 2025)
# “Also recorded” adds a separate entry of the source. Like-named read-outs stand apart in the source and are kept apart here.
# Legend:
# Format in all cases: in vivo, rat
# [1] = tested on: visceral pain (visceral hypersensitivity) in rats induced by intrarectal injection of DNBS; test: Acute administration test: abdominal withdrawal reflex (AWR) to colorectal distension in DNBS-treated rats
# Description: (§1) Male Sprague-Dawley rats (Envigo, Varese, Italy) weighing approximately 300 g at the beginning of a test were used. The animals were housed in Centro Stabulazione Animali da Laboratorio (CeSAL, University of Florence) and used at least one week after their arrival. Four rats were raised per cage (size 26×41 cm). The animals were fed with standard laboratory diet and tap water ad libitum and kept at 23±1° C. with a 12-hour light/dark cycle (light at 7:00 in the morning). All animal manipulations were carried out according to the European Community Guidelines for Animal Care (DL116/92) and the application of European Communities Council Directive of Nov. 24, 1986 (86/609/EEC). The ethical policy of the University of Florence complies with the Guide for the Care and Use of Laboratory Animals of the US National Institutes of Health (NIH Publication No. 85-23, revised 1996, University of Florence assurance number: A5278-01). Formal approval to conduct the experiments described was obtained from the Animal Subjects Review Board of the University of Florence. Experiments involving animals have been reported according to ARRIVE guidelines (McGrath and Lilley, Br. J. Pharmacol. 2015; 172:3189-3193). All efforts were made to minimize suffering of the animals and to reduce the number of animals used.
# Colitis was induced by intrarectal administration of 15 mg of 2,4-dinitrobenzenesulfonic acid (DNBS; Sigma-Aldrich S.r.l., Milano, Italia) in 0.25 ml of 50% ethanol via a polyethylene PE-60 catheter inserted approximately 8 cm into the anus, while the rat was under short-term anesthesia by isoflurane (2%). […]
# Compound A and Compound B were dissolved in water and orally administered 30 minutes before the beginning of a test, and an acute effect was evaluated.
# (§2) Visceral sensitivity to colorectal distension (CRD) was evaluated by measurement of abdominal withdrawal reflex (AWR) in conscious animals using semiquantitative scores (Lucarini et al., Cells. 2020; 9 (8): E1772). […]
# Visceral sensitivity was evaluated by measuring abdominal withdrawal reflex (AWR) to colorectal distension (0.5 to 3 mL).
# [2] = tested on: visceral pain (visceral hypersensitivity) in rats induced by intrarectal injection of DNBS; conditions: prevention test: daily from Day 1 to Day 6, evaluated 6 days after colitis induction, 24 hours after last treatment
# Description: as §1, with “Experiments involving animals have been reported according to ARRIVE guidelines (McGrath and Lilley, Br. J. Pharmacol. 2015; 172:3189-3193). All efforts were made to minimize suffering of the animals and to reduce the number of animals used.” left out
# as §2
# Visceral sensitivity was evaluated by measuring AWR to colorectal distension (0.5 to 3 mL). […]
# [3] = tested on: colonic damage in rats induced by the intrarectal injection of DNBS; test: Prevention test: macroscopic colonic damage score in DNBS-treated rats; conditions: prevention test: daily from Day 1 to Day 6
# Description: (§3) Colitis was induced by intrarectal administration of 15 mg of 2,4-dinitrobenzenesulfonic acid (DNBS; Sigma-Aldrich S.r.l., Milano, Italia) in 0.25 ml of 50% ethanol via a polyethylene PE-60 catheter inserted approximately 8 cm into the anus, while the rat was under short-term anesthesia by isoflurane (2%). To control rats, 0.25 ml of a vehicle was administered.
# (§4) In addition, in order to evaluate an effect of repeated administration of a P2X4 antagonist, two different tests (that is, prevention test and intervention test) were adopted. […]
# (§5) The macroscopic criteria were as follows: • presence of adhesion between colon and another intraperitoneal organ (0-2: no adhesions: 0 points, adhesion with only one adjacent organ: 1 point, and adhesions with a plurality of adjacent organs: 2 points); • consistency of colon fecal matter (indirect marker of diarrhea; 0-2: formed stool: 0 points, loose stool: 1 point, and liquid stool: 2 points); • thickening of colonic wall (mm: 1 point was scored for 1 mm); and • presence and spread of hyperemia and macroscopic mucosal damage (0-5: none: 0 points, hyperemic: 1 point, ulcers without hyperemia or thickening of intestinal wall: 2 points, ulcer with inflammation at one site: 3 points, ulcers with inflammation at two or more sites: 4 points, and wide site of damage exceeding 1 cm along length of colon: 5 points). […]
# [4] = Prevention test: body weight of DNBS-treated rats; conditions: Day 1 vs Day 6, DNBS weight loss approximately 10%, not significant
# Description: (§6) In addition, in order to evaluate an effect of repeated administration of a P2X4 antagonist, two different tests (that is, prevention test and intervention test) were adopted. In the prevention test, the test medicament was administered daily to the rats immediately after the delivery of DNBS (Day 1), and the treatment was continued until the rats were sacrificed on the 6th day (Day 6). In the intervention test, the daily treatment with the medicament began 2 days after the delivery of DNBS (Day 3), and the rats were sacrificed on the 8th day (Day 8).
# Visceral sensitivity was evaluated by measuring AWR to colorectal distension (0.5 to 3 mL). In the prevention test, the test medicament was administered daily to the rats immediately after the administration of DNBS, and the treatment was continued until the rats were sacrificed on the 6th day (Day 6). The evaluation was performed 6 days after the induction of colitis and 24 hours after the last treatment with Compound A (A) and Compound B (B). After the test, the animals were sacrificed, and macroscopic damage scores were assigned to their colons (FIG. 2C and FIG. 2D). In FIG. 2E and FIG. 2F, weights (g) of the animals before the DNBS injection (Day 1) and at the end of the preventive treatment with Compound A and Compound B (Day 6) are shown, respectively.
# [5] = tested on: visceral pain (visceral hypersensitivity) in rats induced by intrarectal injection of DNBS; test: Intervention test (repeated administration): AWR to colorectal distension in DNBS-treated rats; conditions: for effect on visceral pain compared with the treatment with dexamethasone: intervention test; for onset of visceral pain (visceral hypersensitivity): intervention test: daily from Day 3 to Day 8, evaluated Day 8, 24 hours after last treatment
# Description: as §1, §3, §6
# Visceral sensitivity to colorectal distension (CRD) was evaluated by measurement of abdominal withdrawal reflex (AWR) in conscious animals using semiquantitative scores (Lucarini et al., Cells. 2020; 9 (8): E1772). Briefly, the rats were anesthetized with isoflurane. A lubricated latex balloon (length: 4.5 cm) that is assembled into an embolectomy catheter by being attached to a polyethylene tube to be connected to a syringe filled with water was inserted into the rectum and the descending colon of adult rats through the anus. […]
# [6] = tested on: colonic damage in rats induced by the intrarectal injection of DNBS; test: Intervention test: macroscopic colonic damage score in DNBS-treated rats; conditions: intervention test: daily from Day 3 to Day 8
# Description: as §3, §4, §5
# [7] = Intervention test: body weight of DNBS-treated rats; conditions: Day 1 vs Day 8, DNBS weight loss approximately 10%, not significant
# Description: as §6
# In the test, the administration of the compounds began 2 days after the delivery of DNBS (Day 3) and was continued until the rats were sacrificed on the 8th day (Day 8). Evaluation was performed 8 days after the induction of colitis (Day 8) and 24 hours after the last treatment with Compound A (A) and Compound B (B). After the test, the animals were sacrificed, and macroscopic damage scores were assigned to their colons (FIG. 3C and FIG. 3D). In FIG. 3E and FIG. 3F, weights (g) of the animals before the DNBS injection (Day 1) and at the end of the intervention treatment with Compound A and Compound B (Day 8) are reported, respectively.
# [8] = tested on: occludin expression in colonic mucosa; test: Occludin expression in colonic tissue of DNBS-induced rats by western blotting; conditions: 10 mg/kg
Compound,"visceral pain threshold ([1]; acute administration, higher doses, DNBS animals)","AWR to colorectal distension ([1]; acute oral administration 10 to 30 mg/kg, 30 minutes before test, seven days after DNBS)",onset of visceral pain (visceral hypersensitivity) [2],colonic damage (macroscopic damage score) [3],weight loss caused by DNBS [4],effect on visceral pain compared with the treatment with dexamethasone [5],onset of visceral pain (visceral hypersensitivity) [5],colonic damage (macroscopic damage score) [6],weight loss caused by DNBS [7],"occludin expression in inflamed tissues compared to the DNBS-induced rats ([8]; listed as Compound A, sodium salt)","AWR to colorectal distension ([1]; acute oral administration 10 and 30 mg/kg, colorectal distension 1 to 2 mL)",occludin expression in inflamed tissues compared to the DNBS-induced rats ([8]; listed as Compound B)
"O=C1CC(=O)N(c2cccc(-c3noc(=S)[nH]3)c2)c2ccc3ccccc3c2N1.[Na] [Compound A17, 5-[3-(5-thioxo-4H-[1,2,4]oxadiazol-3-yl)phenyl]-1H-naphtho[1,2-b][1,4]diazepine-2,4(3H,5H)-dione sodium salt]",returned to a control value,significantly and dose-dependently decreased,counteracted,counteracted,did not affect,more effective,significantly reduces,significant reduction,does not affect,increased; also recorded: counteract,,
"O=C1CC(=O)N(c2ccc(NC(=O)c3ccccc3I)cc2)c2ccc3ccccc3c2N1 [Compound B48, 5-[4-(2-iodobenzoylamino)phenyl]-1H-naphtho[1,2-b][1,4]diazepine-2,4(3H,5H)-dione]",,,counteracted,counteracted,did not affect,more effective,significantly reduces,significant reduction,does not affect,,significantly reduced,increased; also recorded: counteract
